Reference: US4045298A, “Antibiotic XK-62-2 and process for production thereof” (priority 1972, dated 1977)
≈ marks a conversion by molar mass, not a printed value. Where two headings read alike, the source gives them in different places.

Legend:
[1] = test system: Proteus vulgaris ATCC 6897; experiment: Minimum inhibitory concentration by agar dilution method; assay type: cell-based; conditions: ATCC6897, agar dilution
From the text: Antibacterial spectra of XK-62-2 by agar
The comparative in vitro activities of these antibiotics against various microorganisms of the genus Proteus are shown in the following Table 6.
(§1) Minimum inhibitory concentration
(§2) (γ/ml : by agar dilution method)

[2] = test system: Pseudomonas aeruginosa KY 8510; experiment: as above; assay type: cell-based
From the text: as §1, §2

[3] = test system: Pseudomonas aeruginosa KY 8512; experiment: as above; assay type: cell-based; conditions: KY8512, clinical isolate, Table 7
From the text: as §1, §2

[4] = test system: Pseudomonas aeruginosa KY 8520; experiment: as above; assay type: cell-based; conditions: KY8520, clinical isolate, Table 7
From the text: as §1, §2

[5] = test system: Pseudomonas aeruginosa KY 8562; experiment: as above; assay type: cell-based; conditions: KY8562, clinical isolate, Table 7
From the text: as §1, §2

[6] = test system: Pseudomonas aeruginosa BMH No. 1; experiment: In vivo protection of mice against bacterial infection; conditions: subcutaneous, inoculum 3.8×10^8 cells/mouse intraperitoneal
Experimental: In addition, the in vivo activity of XK-62-2 against pathogenic bacterial infections in mice is tested. The mice are infected with an inoculum of 3.8× 10^8 cells/mouse of Pseudomonas aeruginosa BMH No. 1 or 6.6× 10^7 cells/mouse of Pseudomonas aeruginosa KY 8510 by intraperitoneal injection. They are then treated with various doses of the test antibiotic by subcutaneous injection. The effect of XK-62-2 on the protection of the bacterial infections is shown in the following Table 8 wherein ten mice are used in each test.

[7] = test system: Pseudomonas aeruginosa KY 8510; experiment: as above; conditions: subcutaneous, inoculum 6.6×10^7 cells/mouse intraperitoneal
Experimental: In addition, the in vivo activity of XK-62-2 against pathogenic bacterial infections in mice is tested. […] They are then treated with various doses of the test antibiotic by subcutaneous injection.

[8] = test system: Diplococcus pneumoniae III; experiment: In vivo activity against pathogenic bacterial infections in mice
From the text: (§3) The in vivo activity of XK-62-2 against pathogenic bacterial infections in mice is further tested using various Gram-positive and Gram-negative bacteria. The mice are infected with an inoculum of the bacteria by intraperitonial injection and then treated with the test antibiotic by subcutaneous injection.

[9] = test system: Escherichia coli GN 2411-5; experiment: as above
From the text: as §3

[10] = test system: Klebsiella pneumoniae No. 8045; experiment: as above
From the text: as §3

Proteus mirabilis 1287 = experiment: as above
From the text: as §3

[11] = test system: Staphylococcus aureus Smith; experiment: as above
From the text: as §3

[12] = test system: Streptococcus pyogenes S23; experiment: as above
From the text: as §3

[13] = test system: Bacillus subtilis No. 10707; experiment: Activity (unit/mg) of isolated preparations; paper disk method using an agar plate; assay type: cell-based
Experimental: (§4) After the completion of fermentation, the culture liquor is adjusted to a pH of 2.0 with 12N sulfuric acid and stirred for 30 minutes. Then, about 10 kg of a filter aid, Radiolite No. 600 (product of Showa Kagaku Kogyo Co., Ltd., Japan) is added thereto and the microbial cells are removed by filtration. The filtrate is adjusted to a pH of 8.0 with 6N sodium hydroxide and passed through a column packed with about 50 l of a cation exchange resin, Amberlite IRC-50 (ammonia form). The active substance is adsorbed on the resin and the eluate is discarded. After washing the resin with water, the active substance is eluted out with 1N aqueous ammonia.
Active fractions are combined and concentrated in vacuo to about 5 l. The concentrate is then adjusted to a pH of 8.0 with 6N sulfuric acid and passed through a column packed with 1 l of an anion exchange resin, Dowex 1×2 (OH^- form). The column is washed with about 5 l of water and the effluent and the washings containing active substance are combined and are concentrated to 1/15 by volume. […] The resultant precipitate is removed by filtration and the filtrate is concentrated to 500 ml. The concentrate is adjusted to a pH of 4.5 with 6N sulfuric acid and 2.5 l of methanol is added thereto. […] The precipitate is separated by filtration and washed with methanol.
as §4, with “of” for “of a filter aid,”, “(trade name)” for “(product of Showa Kagaku Kogyo Co., Ltd., Japan)”, “The” for “The active substance is adsorbed on the resin and the”

Solubility = assay type: physicochemical
[14] = test system: specific enzyme system which inactivates gentamicin C1a or kanamycin by acetylating; assay type: biochemical, Pseudomonas aeruginosa

## CNC[C@@H]1CC[C@@H](N)[C@@H](O[C@H]2[C@H](O)[C@@H](O[C@H]3OC[C@](C)(O)[C@H](NC)[C@H]3O)[C@H](N)C[C@@H]2N)O1 [XK-62-2]
[1]; Table 5, read-out: Minimum inhibitory concentration
  MIC: 0.03 µg/mL (≈ 0.0647 µM)
[1]; Table 6, read-out: Minimum inhibitory concentration
  MIC: 0.04 µg/mL (≈ 0.0863 µM)
[2]; KY 8510
  Susceptibility of strain: sensitive
[2]; Pseudomonas aeruginosa, KY8510, agar dilution, clinical isolate, Table 7
  MIC: 0.33 µg/mL (≈ 0.712 µM)
[2]; vs gentamicin complex or gentamicin C1a
  Antibacterial activity relative to gentamicin complex or gentamicin C1a: much higher antibacterial activity
[3]
  MIC: 0.33 µg/mL (≈ 0.712 µM)
[4]
  MIC: 0.33 µg/mL (≈ 0.712 µM)
[5]
  MIC: > 42 µg/mL
[6]; 0.125 mg/mouse
  Survival of mice: 0%
[6]; 0.25 mg/mouse
  Survival of mice: 10%
[6]; 0.5 mg/mouse
  Survival of mice: 50%
[6]; 1 mg/mouse
  Survival of mice: 90%
[6]; 2 mg/mouse
  Survival of mice: 100%
[7]; 0.125 mg/mouse
  Survival of mice: 0%
[7]; 0.25 mg/mouse
  Survival of mice: 30%
[7]; 0.5 mg/mouse
  Survival of mice: 50%
[7]; 1 mg/mouse
  Survival of mice: 80%
[7]; 2 mg/mouse
  Survival of mice: 100%
[8]; Streptococcus pneumoniae, sc, subcutaneous, challenge inoculum 4.4×10^3 cells/mouse, read-out: Median effective dose [ED50]
  ED50: 6.6 ± 1.9 mg/kg
[8]; ratio of ED50
  Ratio XK-62-2/gentamicin complex: 0.86
[9]; Escherichia coli, GN2411, sc, subcutaneous, challenge inoculum 3.6×10^6 cells/mouse, read-out: Median effective dose [ED50]
  ED50: 10.8 ± 4.1 mg/kg
[9]; ratio of ED50
  Ratio XK-62-2/gentamicin complex: 1.01
[10]; Klebsiella pneumoniae, NO.8045, sc, subcutaneous, challenge inoculum 1.4×10^8 cells/mouse, read-out: Median effective dose [ED50]
  ED50: 5.7 ± 1.4 mg/kg
[10]; ratio of ED50
  Ratio XK-62-2/gentamicin complex: 0.74
Proteus mirabilis 1287; Proteus mirabilis, 1287, sc, subcutaneous, challenge inoculum 1.8×10^8 cells/mouse, read-out: Median effective dose [ED50]
  ED50: 10.4 ± 4.4 mg/kg
Proteus mirabilis 1287; ratio of ED50
  Ratio XK-62-2/gentamicin complex: 0.97
[11]; Staphylococcus aureus, sc, subcutaneous, challenge inoculum 1.8×10^8 cells/mouse, read-out: Median effective dose [ED50]
  ED50: 0.28 ± 0.04 mg/kg
[11]; ratio of ED50
  Ratio XK-62-2/gentamicin complex: 1.33
[12]; Streptococcus pyogenes, S23, sc, subcutaneous, challenge inoculum 2.7×10^7 cells/mouse, read-out: Median effective dose [ED50]
  ED50: 17.7 ± 4.8 mg/kg
[12]; ratio of ED50
  Ratio XK-62-2/gentamicin complex: 1.50
[13]; Example 1, purified preparate, free base
  Activity: 950 unit/mg
[13]; Example 2, free base, Mm-628 ATCC 21827
  Activity: 932 unit/mg
[13]; Example 3, purified preparate, free base
  Activity: about 950 unit/mg
[13]; Example 4, free base
  Activity: 900 unit/mg
[13]; Example 5, free base
  Activity: 975 unit/mg
[13]; Example 6, free base, Micromonospora purpurea ATCC 15835
  Activity: 925 unit/mg
[13]; Example 7, free base, Micromonospora echinospora ATCC 15837 NRRL 2985
  Activity: 898 unit/mg
[13]; Example 7, free base, Micromonospora echinospora var. ferruginea NRRL 2995
  Activity: 912 unit/mg
[13]; Example 7, free base, Micromonospora echinospora var. pallida NRRL 2996
  Activity: 925 unit/mg
Solubility; acetone
  Solubility in acetone: soluble
Solubility; chloroform, benzene, ethyl acetate, butyl acetate, ether, butanol, petroleum ether, n-hexane, etc.
  Solubility in chloroform, benzene, ethyl acetate, butyl acetate, ether, butanol, petroleum ether, n-hexane: insoluble
Solubility; ethanol
  Solubility in ethanol: soluble
Solubility; methanol
  Solubility in methanol: soluble
Solubility; ordinary organic solvents
  Solubility in ordinary organic solvents: poorly soluble
Solubility; water
  Solubility in water: very soluble
[14]
  Inactivation by acetylation (6'-NH2): free from acetylation
